Among the data in patent publication US9212182B2, “Bicyclic sulfonamide compounds as sodium channel inhibitors” (AMGEN INC., priority 2013, dated 2015) are IC50 values, retold here.

SMILES strings stand for the structures. pIC50: −log10 of the molar value.

For one assay, the target named is Nav 1.7 (Homo sapiens (Human), UniProt Q15858). Briefly: in-vitro Nav 1.7 PX (IC50). It counts as cell-based. Particulars: in-vitro Nav 1.7 PX data.
Sequence of Nav 1.7 (Q15858 whole entry): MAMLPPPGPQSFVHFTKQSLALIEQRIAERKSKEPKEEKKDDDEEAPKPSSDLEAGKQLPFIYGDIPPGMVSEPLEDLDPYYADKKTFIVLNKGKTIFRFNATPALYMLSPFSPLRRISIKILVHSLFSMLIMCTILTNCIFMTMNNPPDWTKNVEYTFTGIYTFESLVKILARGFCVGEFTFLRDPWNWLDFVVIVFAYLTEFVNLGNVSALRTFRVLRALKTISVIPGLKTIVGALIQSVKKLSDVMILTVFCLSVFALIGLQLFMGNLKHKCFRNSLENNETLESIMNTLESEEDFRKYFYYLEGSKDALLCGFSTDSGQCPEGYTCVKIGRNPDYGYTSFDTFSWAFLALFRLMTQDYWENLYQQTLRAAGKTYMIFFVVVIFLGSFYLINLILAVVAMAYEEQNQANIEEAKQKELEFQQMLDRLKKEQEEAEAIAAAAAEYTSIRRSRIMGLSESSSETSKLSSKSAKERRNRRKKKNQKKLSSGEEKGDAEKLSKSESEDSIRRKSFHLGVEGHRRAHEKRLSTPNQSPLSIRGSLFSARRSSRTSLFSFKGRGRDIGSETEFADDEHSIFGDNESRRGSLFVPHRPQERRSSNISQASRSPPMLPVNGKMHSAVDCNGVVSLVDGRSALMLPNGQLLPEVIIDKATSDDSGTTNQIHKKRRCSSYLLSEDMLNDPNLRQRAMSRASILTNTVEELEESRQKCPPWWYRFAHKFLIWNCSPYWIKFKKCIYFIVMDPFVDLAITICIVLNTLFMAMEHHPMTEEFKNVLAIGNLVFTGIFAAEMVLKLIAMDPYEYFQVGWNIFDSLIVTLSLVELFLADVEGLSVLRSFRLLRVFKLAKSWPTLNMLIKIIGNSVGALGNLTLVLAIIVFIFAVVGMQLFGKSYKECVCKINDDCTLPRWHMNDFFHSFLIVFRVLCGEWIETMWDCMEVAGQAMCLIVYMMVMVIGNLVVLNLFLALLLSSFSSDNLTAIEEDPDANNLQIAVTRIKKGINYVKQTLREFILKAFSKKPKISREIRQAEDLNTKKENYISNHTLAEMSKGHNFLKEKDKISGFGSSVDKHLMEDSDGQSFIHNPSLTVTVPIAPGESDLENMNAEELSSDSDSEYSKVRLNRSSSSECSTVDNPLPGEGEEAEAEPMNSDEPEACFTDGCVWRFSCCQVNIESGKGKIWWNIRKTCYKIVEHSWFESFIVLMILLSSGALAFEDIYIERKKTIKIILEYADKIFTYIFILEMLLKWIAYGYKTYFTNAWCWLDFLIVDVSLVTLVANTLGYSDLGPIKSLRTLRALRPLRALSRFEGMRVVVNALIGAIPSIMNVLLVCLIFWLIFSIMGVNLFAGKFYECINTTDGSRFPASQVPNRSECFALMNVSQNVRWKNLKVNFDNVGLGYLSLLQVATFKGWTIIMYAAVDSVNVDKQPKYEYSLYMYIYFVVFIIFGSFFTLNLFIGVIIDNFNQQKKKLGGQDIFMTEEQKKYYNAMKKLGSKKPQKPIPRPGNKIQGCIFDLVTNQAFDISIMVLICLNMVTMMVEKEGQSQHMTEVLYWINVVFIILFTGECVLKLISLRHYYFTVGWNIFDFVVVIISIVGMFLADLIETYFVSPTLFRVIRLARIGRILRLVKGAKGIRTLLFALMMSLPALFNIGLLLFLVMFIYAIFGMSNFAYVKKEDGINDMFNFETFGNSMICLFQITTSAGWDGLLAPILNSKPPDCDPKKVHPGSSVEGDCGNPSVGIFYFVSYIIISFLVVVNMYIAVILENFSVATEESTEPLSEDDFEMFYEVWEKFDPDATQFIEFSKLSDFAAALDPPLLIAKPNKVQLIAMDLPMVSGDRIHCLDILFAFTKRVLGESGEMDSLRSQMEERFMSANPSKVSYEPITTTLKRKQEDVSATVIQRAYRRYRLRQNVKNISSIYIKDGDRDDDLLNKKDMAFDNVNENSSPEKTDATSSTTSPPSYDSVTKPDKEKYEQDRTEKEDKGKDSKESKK
Take `COc1cc(Br)c(F)cc1-n1c(=O)ccc2cc(S(=O)(=O)Nc3cccc(C)n3)ccc21` [Example 989, 1-(4-bromo-5-fluoro-2-methoxyphenyl)-N-(6-methyl-2-pyridinyl)-2-oxo-1,2-dihydro-6-quinolinesulfonamide]: the pIC50 is 5.06.

In turn, `COc1cc(F)cc(-c2ccc(-n3c(=O)ccc4cc(S(=O)(=O)Nc5ncccn5)ccc43)c(OC)c2)c1` [Example 996, 1-(3′-fluoro-3,5′-dimethoxy-4-biphenylyl)-2-oxo-N-2-pyrimidinyl-1,2-dihydro-6-quinolinesulfonamide] gave a pIC50 of 7.28.

As for `COc1cc(F)cc(-c2ccc(-n3c(=O)ccc4cc(S(=O)(=O)Nc5cccnn5)ccc43)c(OC)c2)c1` [Example 997, 1-(3′-fluoro-3,5′-dimethoxy-4-biphenylyl)-2-oxo-N-3-pyridazinyl-1,2-dihydro-6-quinolinesulfonamide], the pIC50 is 7.18.

`COc1cc(F)cc(-c2ccc(-n3c(=O)ccc4cc(S(=O)(=O)Nc5ncc(F)cn5)ccc43)c(OC)c2)c1` [Example 998, 1-(3′-fluoro-3,5′-dimethoxy-4-biphenylyl)-N-(5-fluoro-2-pyrimidinyl)-2-oxo-1,2-dihydro-6-quinolinesulfonamide] showed a pIC50 of 7.05.

Take `COc1cc(F)cc(-c2ccc(-n3c(=O)ccc4cc(S(=O)(=O)Nc5ccnc(C)n5)ccc43)c(OC)c2)c1` [Example 1003, 1-(3′-fluoro-3,5′-dimethoxy-4-biphenylyl)-N-(2-methyl-4-pyrimidinyl)-2-oxo-1,2-dihydro-6-quinolinesulfonamide]: the pIC50 is 5.90.

The molecule `COc1cc(F)cc(-c2ccc(-n3c(=O)ccc4cc(S(=O)(=O)Nc5cc(C)ncn5)ccc43)c(OC)c2)c1` [Example 1004, 1-(3′-fluoro-3,5′-dimethoxy-4-biphenylyl)-N-(6-methyl-4-pyrimidinyl)-2-oxo-1,2-dihydro-6-quinolinesulfonamide] had a pIC50 of 6.66.

As for `COc1cc(F)cc(-c2ccc(-n3c(=O)ccc4cc(S(=O)(=O)Nc5ncco5)ccc43)c(OC)c2)c1` [Example 1005, 1-(3′-fluoro-3,5′-dimethoxy-4-biphenylyl)-N-1,3-oxazol-2-yl-2-oxo-1,2-dihydro-6-quinolinesulfonamide], the pIC50 is 6.57.

The molecule `COc1cc(-c2cc(OC)c(-n3c(=O)ccc4cc(S(=O)(=O)Nc5ncccn5)ccc43)cc2F)ccc1F` [Example 1006, 1-(2,4′-difluoro-3′,5-dimethoxy-4-biphenylyl)-2-oxo-N-2-pyrimidinyl-1,2-dihydro-6-quinolinesulfonamide] gave a pIC50 of 7.12.

In turn, `COc1cc(-c2cc(OC)c(-n3c(=O)ccc4cc(S(=O)(=O)Nc5cccnn5)ccc43)cc2F)ccc1F` [Example 1007, 1-(2,4′-difluoro-3′,5-dimethoxy-4-biphenylyl)-2-oxo-N-3-pyridazinyl-1,2-dihydro-6-quinolinesulfonamide] showed a negative-log IC50 (pIC50) of 6.88.

In turn, `COc1cc(-c2cc(OC)c(-n3c(=O)ccc4cc(S(=O)(=O)Nc5ccnc(C)n5)ccc43)cc2F)ccc1F` [Example 1008, 1-(2,4′-difluoro-3′,5-dimethoxy-4-biphenylyl)-N-(2-methyl-4-pyrimidinyl)-2-oxo-1,2-dihydro-6-quinolinesulfonamide] gave a pIC50 of 6.68.

The molecule `COc1cc(-c2cc(OC)c(-n3c(=O)ccc4cc(S(=O)(=O)Nc5cc(C)ncn5)ccc43)cc2F)ccc1F` [Example 1009, 1-(2,4′-difluoro-3′,5-dimethoxy-4-biphenylyl)-N-(6-methyl-4-pyrimidinyl)-2-oxo-1,2-dihydro-6-quinolinesulfonamide] gave a pIC50 of 6.82.

Take `COc1cc(-c2cc(OC)c(-n3c(=O)ccc4cc(S(=O)(=O)Nc5ncc(F)cn5)ccc43)cc2F)ccc1F` [Example 1010, 1-(2,4′-difluoro-3′,5-dimethoxy-4-biphenylyl)-N-(5-fluoro-2-pyrimidinyl)-2-oxo-1,2-dihydro-6-quinolinesulfonamide]: the pIC50 was 7.13.

Consider `COc1cc(-c2cc(OC)c(-n3c(=O)ccc4cc(S(=O)(=O)Nc5ncco5)ccc43)cc2F)ccc1F` [Example 1011, 1-(2,4′-difluoro-3′,5-dimethoxy-4-biphenylyl)-N-1,3-oxazol-2-yl-2-oxo-1,2-dihydro-6-quinolinesulfonamide], for which the pIC50 is 6.68.

On to `COc1cc(-c2ccc(F)c(F)c2)ccc1-n1c(=O)ccc2cc(S(=O)(=O)Nc3ccon3)ccc21` [Example 1014, 1-(3′,4′-difluoro-3-methoxy-4-biphenylyl)-N-3-isoxazolyl-2-oxo-1,2-dihydro-6-quinolinesulfonamide], for which the pIC50 is 7.28.

Molecule `COc1cc(-c2cc(C)cc(F)c2)ccc1-n1c(=O)ccc2cc(S(=O)(=O)Nc3ccon3)ccc21` [Example 1015, 1-(3′-fluoro-3-methoxy-5′-methyl-4-biphenylyl)-N-3-isoxazolyl-2-oxo-1,2-dihydro-6-quinolinesulfonamide] gave a pIC50 of 7.92.

Molecule `COc1cc(-c2cc(C)cc(C)c2)ccc1-n1c(=O)ccc2cc(S(=O)(=O)Nc3ccon3)ccc21` [Example 1016, N-3-isoxazolyl-1-(3-methoxy-3′,5′-dimethyl-4-biphenylyl)-2-oxo-1,2-dihydro-6-quinolinesulfonamide] showed a pIC50 of 7.96.

`COc1cc(-c2ccc(-n3c(=O)ccc4cc(S(=O)(=O)Nc5ccon5)ccc43)c(OC)c2)ccc1F` [Example 1017, 1-(4′-fluoro-3,3′-dimethoxy-4-biphenylyl)-N-3-isoxazolyl-2-oxo-1,2-dihydro-6-quinolinesulfonamide] gave a pIC50 of 7.10.

In the case of `COc1cc(F)cc(-c2ccc(-n3c(=O)ccc4cc(S(=O)(=O)Nc5ccon5)ccc43)c(OC)c2)c1` [Example 1018, 1-(3′-fluoro-3,5′-dimethoxy-4-biphenylyl)-N-3-isoxazolyl-2-oxo-1,2-dihydro-6-quinolinesulfonamide], the pIC50 was 7.89.

The molecule `COc1cc(-c2cccc(C#N)c2)ccc1-n1c(=O)ccc2cc(S(=O)(=O)Nc3ccon3)ccc21` [Example 1019, 1-(3′-cyano-3-methoxy-4-biphenylyl)-N-3-isoxazolyl-2-oxo-1,2-dihydro-6-quinolinesulfonamide] showed a pIC50 of 7.01.

Consider `COc1cc(-c2ccc(F)c(C#N)c2)ccc1-n1c(=O)ccc2cc(S(=O)(=O)Nc3ccon3)ccc21` [Example 1020, 1-(3′-cyano-4′-fluoro-3-methoxy-4-biphenylyl)-N-3-isoxazolyl-2-oxo-1,2-dihydro-6-quinolinesulfonamide], for which the pIC50 is 7.09.

For `COc1cc(-c2cc(F)cc(C#N)c2)ccc1-n1c(=O)ccc2cc(S(=O)(=O)Nc3ccon3)ccc21` [Example 1021, 1-(3′-cyano-5′-fluoro-3-methoxy-4-biphenylyl)-N-3-isoxazolyl-2-oxo-1,2-dihydro-6-quinolinesulfonamide], the pIC50 was 6.98.

Consider `COc1cc(-c2cc(C)cnc2OC)ccc1-n1c(=O)ccc2cc(S(=O)(=O)Nc3ccon3)ccc21` [Example 1022, N-3-isoxazolyl-1-(2-methoxy-4-(2-methoxy-5-methyl-3-pyridinyl)phenyl)-2-oxo-1,2-dihydro-6-quinolinesulfonamide], for which the pIC50 was 6.86.

In the case of `COc1cc(-c2cc(Cl)cc(Cl)c2)ccc1-n1c(=O)ccc2cc(S(=O)(=O)Nc3ccon3)ccc21` [Example 1023, 1-(3′,5′-dichloro-3-methoxy-4-biphenylyl)-N-3-isoxazolyl-2-oxo-1,2-dihydro-6-quinolinesulfonamide], the pIC50 was 8.05.

The molecule `COc1cc(-c2cc(F)c(F)cc2F)ccc1-n1c(=O)ccc2cc(S(=O)(=O)Nc3ccon3)ccc21` [Example 1024, N-3-isoxazolyl-2-oxo-1-(2′,4′,5′-trifluoro-3-methoxy-4-biphenylyl)-1,2-dihydro-6-quinolinesulfonamide] showed a pIC50 of 7.21.

Regarding `COc1ccc(-c2ccc(-n3c(=O)ccc4cc(S(=O)(=O)Nc5ccon5)ccc43)c(OC)c2)cc1Cl` [Example 1026, 1-(3′-chloro-3,4′-dimethoxy-4-biphenylyl)-N-3-isoxazolyl-2-oxo-1,2-dihydro-6-quinolinesulfonamide], the pIC50 was 7.23.

`COc1cc(-c2ccc(-n3c(=O)ccc4cc(S(=O)(=O)Nc5ccon5)ccc43)c(OC)c2)ccc1Cl` [Example 1027, 1-(4′-chloro-3,3′-dimethoxy-4-biphenylyl)-N-3-isoxazolyl-2-oxo-1,2-dihydro-6-quinolinesulfonamide] gave a pIC50 of 7.49.

`COc1cc(-c2cccc(Cl)c2C)ccc1-n1c(=O)ccc2cc(S(=O)(=O)Nc3ccon3)ccc21` [Example 1028, 1-(3′-chloro-3-methoxy-2′-methyl-4-biphenylyl)-N-3-isoxazolyl-2-oxo-1,2-dihydro-6-quinolinesulfonamide] had a pIC50 of 7.74.

The molecule `COc1cc(-c2cc(Cl)ccc2C)ccc1-n1c(=O)ccc2cc(S(=O)(=O)Nc3ccon3)ccc21` [Example 1029, 1-(5′-chloro-3-methoxy-2′-methyl-4-biphenylyl)-N-3-isoxazolyl-2-oxo-1,2-dihydro-6-quinolinesulfonamide] had a pIC50 of 8.52.

As to `COc1cc(-c2cc(C)ccc2Cl)ccc1-n1c(=O)ccc2cc(S(=O)(=O)Nc3ccon3)ccc21` [Example 1030, 1-(2′-chloro-3-methoxy-5′-methyl-4-biphenylyl)-N-3-isoxazolyl-2-oxo-1,2-dihydro-6-quinolinesulfonamide], the pIC50 is 7.92.

Staying with this assay, now noted: in-vitro Nav 1.7 PX data (PatchXpress).
`COc1ccc(Cl)c(-c2ccc(-n3c(=O)ccc4cc(S(=O)(=O)Nc5ccon5)ccc43)c(OC)c2)c1` [Example 1031, 1-(2′-chloro-3,5′-dimethoxy-4-biphenylyl)-N-3-isoxazolyl-2-oxo-1,2-dihydro-6-quinolinesulfonamide] had a negative-log IC50 (pIC50) of 7.60.

`COc1cc(-c2cc(C)ccc2F)ccc1-n1c(=O)ccc2cc(S(=O)(=O)Nc3ccon3)ccc21` [Example 1032, 1-(2′-fluoro-3-methoxy-5′-methyl-4-biphenylyl)-N-3-isoxazolyl-2-oxo-1,2-dihydro-6-quinolinesulfonamide] showed a pIC50 of 7.31.

Consider `COc1ccc(F)c(-c2ccc(-n3c(=O)ccc4cc(S(=O)(=O)Nc5ccon5)ccc43)c(OC)c2)c1` [Example 1033, 1-(2′-fluoro-3,5′-dimethoxy-4-biphenylyl)-N-3-isoxazolyl-2-oxo-1,2-dihydro-6-quinolinesulfonamide], for which the pIC50 is 7.19.
